Laboratory results published in patent EP0777471B1, “INHIBITION OF LEUKOTRIENE BIOSYNTHESIS WITH UREA DERIVATIVES” (MINNESOTA MINING AND MANUFACTURING COMPANY, priority 1994, dated 1996).
pIC50: −log10 of the molar value. Where “and” joins values, the source holds several entries; their conditions need not be identical. Identical values can stand only once. Like-named read-outs stand apart in the source and are kept apart here.

Assays:
5-lipoxygenase = target: T1, 5-lipoxygenase (Homo sapiens, UniProt P09917); assay: 5-Lipoxygenase inhibition in human leukocytes (A23187-stimulated, LTC4 radioimmunoassay); format: cell-based; details: human leukocytes, A23187 Calcium Ionophore, LTC4 formed; read-out: IC50
T1 construct: Whole human blood is collected by venipuncture into EDTA; endogenous in cells; host or cells: leukocytes isolated from whole human blood (dextran sedimentation, hypotonic lysis)
T1 sequence (P09917 1-674): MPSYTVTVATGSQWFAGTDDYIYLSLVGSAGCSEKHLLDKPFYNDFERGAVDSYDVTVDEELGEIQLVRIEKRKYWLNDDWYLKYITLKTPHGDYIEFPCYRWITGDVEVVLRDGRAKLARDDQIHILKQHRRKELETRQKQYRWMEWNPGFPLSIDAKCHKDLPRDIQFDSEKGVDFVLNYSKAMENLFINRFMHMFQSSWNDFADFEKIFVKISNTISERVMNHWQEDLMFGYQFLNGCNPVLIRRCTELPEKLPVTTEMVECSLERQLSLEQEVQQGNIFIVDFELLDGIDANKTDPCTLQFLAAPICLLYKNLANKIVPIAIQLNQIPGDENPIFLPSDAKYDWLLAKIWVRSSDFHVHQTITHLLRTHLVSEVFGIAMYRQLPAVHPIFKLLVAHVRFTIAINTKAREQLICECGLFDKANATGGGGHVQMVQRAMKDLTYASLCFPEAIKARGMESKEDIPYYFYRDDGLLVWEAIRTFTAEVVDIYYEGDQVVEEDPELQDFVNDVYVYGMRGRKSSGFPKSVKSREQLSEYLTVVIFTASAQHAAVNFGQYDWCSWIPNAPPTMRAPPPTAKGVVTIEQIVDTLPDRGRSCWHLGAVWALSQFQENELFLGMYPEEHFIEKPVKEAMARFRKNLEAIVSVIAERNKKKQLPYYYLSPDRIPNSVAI
Description: The test method described below measures the ability of compounds to inhibit 5-lipoxygenase activity in human leukocytes.
Whole human blood is collected by venipuncture into EDTA (1.4 mL of 0.25M per 60 mL of whole blood). The red blood cells are sedimented with a 6% dextran/0.9% sodium chloride solution at a ratio of 25 mL whole blood to 15 mL dextran solution. The blood/dextran combination is mixed by inversion and the red blood cells are allowed to settle out for 45 minutes at ambient temperature. The plasma/dextran supernatant is removed then centrifuged at ambient temperature at 3000 rpm for 10 minutes. The plasma/dextran supernatant is removed and the cells are resuspended in 10 mL of the plasma/dextran solution. […] The pellet is then resuspended into Tris buffer containing 1 mM calcium chloride to provide approximately 1.0 X 10^7 cells/mL.
Compounds are dissolved in dimethyl sulfoxide. […] Each concentration is tested in duplicate.
A 15 µL portion of Tris buffer containing 1 mM calcium chloride is added to each well of a 96 well microtiter plate. A 1 µL portion of drug solution or vehicle (dimethyl sulfoxide) is added to each well followed by the addition of an 75 µL portion of the cell suspension. The plates are gently mixed then allowed to stand at ambient temperature for 10 minutes. A 10 µL portion of 30 µM A23187 Calcium Ionophore (prepared by dissolving the ionophore in DMSO and then diluting 1:80 into the Tris buffer) is added to each well except the wells that contain the blanks (The blank wells measure the level of LTC4 production in the absence of A23187.). The plates are gently mixed then incubated at 37°C for 10 minutes.
Following incubation the plates are centrifuged at 2000 rpm for 1.5 minutes and the supernatant is removed as quickly as possible to stop the reaction. The supernatants are frozen at -20°C until they are assayed.
The supernatants are assayed for the presence of Leukotriene C4 by radioimmunoassay which is performed according to the manufacturer's (Advanced Magnetics; Cambridge, MA) instructions.

[1] = system: production of Leukotriene B4 (LTB4); assay: Dog ex vivo Leukotriene B4 inhibition (oral dosing, blood challenged with calcium ionophore); format: in vivo, beagle dogs; details: each entry one dog, negative = stimulation of LTB4 production; for % Inhibition 6 hour: 6 hour post dose; for inhibition at 5 mg/kg: Canis lupus familiaris, po
Description: The test method described below measures the ability of a compound when administered orally to dogs to inhibit the production of Leukotriene B4 (LTB4) in their blood which is drawn and challenged at selected time points.
The test is conducted in beagle dogs (male and female; about 10 Kg). Prior to starting, the neck area of the beagle is shaved to allow easy access to the jugular vein. A 3-4 mL sample of blood is drawn from the jugular vein into a heparinized vacutainer. The dog is then dosed using a tube long enough to reach its stomach. The compound is dissolved in PEG 400 at a concentration such that the appropriate dose can be administered in approximately 5 mL. Immediately after the compound is given, a flush using 5 mL of vehicle is given to rinse the dosing tube. At selected time points following the dose, a 3-4 mL sample of blood is drawn.
The blood samples that have been drawn are challenged as soon as possible. A 0.5 mL portion of blood is aliquoted into 3 tubes (1 mL microtiter tubes). A 1 µL portion of 25 mM calcium ionophore in dimethyl sulfoxide is added to 2 of the tubes. A 1 µL portion of dimethyl sulfoxide is added to the third tube. The tubes are lightly mixed then placed in a 37°C water bath for 30 minutes. The tubes are centrifuged at 11,000 rpm for 3 minutes and the plasma supernatant is transferred to clean tubes. A 50 µL portion of this plasma is added to a I mL microtiter tube containing 200 µL of methanol. The tubes are placed in the freezer at -20°C for at least 1 hour then centrifuged at 2000 rpm for 10 minutes. A 10 µL portion of the methanol supematant is dried under vacuum at ambient temperature and then reconstituted in LTB4 buffer. The amount of LTB4 in the sample is determined by radioimmunoassay performed according to the manufacturer's (Advanced Magnetics; Cambridge, MA) instructions. Percent inhibition values are obtained by comparing the level of LTB4 in the post-dose sample to the level in the pre-dose sample according to the equation below. % Inhibition =((LTB4 predose) - (LTB4 postdose))/((LTB4 predose))X 100 [formula]
A number of the compounds that are useful in the practice of the method of the invention were tested. The results are shown in Table 15 below where each entry represents the results from one dog. A negative number indicates stimulation of LTB4 production. All compounds were tested at a dose of 5 mg/Kg.

[2] = system: production of Leukotriene B4; assay: Rat ex vivo Leukotriene B4 inhibition (oral dosing, blood challenged with A23187); format: in vivo, Rats; details: two hours post dose
Description: The test method described below measures the ability of a compound when administered orally to rats to inhibit the production of Leukotriene B4 in their blood which is drawn and challenged.
Rats (CD, male, non-fasted, 250 g) are lightly anesthetized with carbon dioxide and an approximately 0.75 mL sample of whole blood is obtained via cardiac puncture. The sample is dispensed into 12 X 75 mm polypropylene tubes containing 8-10 µL of 10,000 units/mL heparin, mixed and then maintained on ice. The rats are allowed to recover approximately one hour then dosed orally with compound dissolved in PEG 400 at a 5 mL/Kg volume. Five (5) rats are utilized per group. Two (2) hours post dose the rats are again anesthetized with carbon dioxide and the blood sampled again via cardiac puncture.
Duplicate 200 µL portions of blood are added to 1.0 mL polypropylene tubes. A 10 µL portion of 1mM A23187 Calcium Ionophore in dimethyl sulfoxide/Tris buffer is added to each tube. The tubes are gently vortexed then incubated in a 37°C water bath for 30 minutes. The tubes are then centrifuged at 4000 rpm for 10 minutes. 50 µL portions of plasma are transferred to 1.0 mL tubes containing 200 µL of methanol. The tubes are vortexed then placed in the freezer overnight.
The tubes are removed from the freezer then centrifuged at 4000 rpm for 10 minutes. […] portions of the methanol/plasma supernatant and 10 µL methanol dilutions of LTB4 standard curve are transferred to 96 well v-bottom microtiter plates. The plates are vacuum dried at 40°C. A 40 µL portion of LTB4 radioimmunoassay buffer is added to each well. The plate is bath sonicated for 5 minutes then assayed according to the manufacturer's (Advanced Magnetics; Cambridge, MA) instructions. Percent inhibition values are obtained by comparing the level of LTB4 in the post-dose samples to the level in the pre-dose samples according to the equation below. % Inhibition =((LTB4 pre-dose) - (LTB4 post-dose))/((LTB4 pre-dose))X 100 [formula]

[3] = system: production of Leukotriene C4 in mouse peritoneal macrophages; assay: In vitro mouse peritoneal macrophage Leukotriene C4 inhibition (zymosan-stimulated, LTC4 radioimmunoassay); format: cell-based; details: Zymosan 50 µg/mL
Description: The test method described below measures the ability of compounds to inhibit the production of Leukotriene C4 in mouse peritoneal macrophages.
Mice (female, CD-1, weighing 25 g) are euthanized by exposure to carbon dioxide. The peritoneal cavity is exposed by peeling back the abdominal skin. A 5 mL portion of media (M199 containing 1% fetal bovine serum, 100 units/mL of penicillin, 100 µg/mL of streptomycin, 20 units/mL of heparin and no glutamine) is injected into the exposed peritoneal cavity of each mouse. The lavage fluid is removed and pooled to yield approximately1 X 10^6 macrophages/mL. A 2 mL portion of lavage fluid is added to each well of a 24 well sterile multidish and the macrophages are allowed to adhere to the plate for 2 hours at 37°C in a 5% carbon dioxide atmosphere. The media is removed and each well is washed with 2 mL of phosphate buffered saline (PBS). A 1 mL portion of media, without heparin, but containing 5 µCi/mL of 3H-myoinositol is added to each well and the plates are incubated overnight at 37°C in a 5% carbon dioxide atmosphere. The media is removed and the cells are washed twice with 2 mL portions of PBS. A 1 mL portion of Puck's saline formulation A containing 1 mM calcium chloride, 1 mM magnesium chloride and 10 mM lithium chloride is added to each well. (The Puck's formulation is made first as a 10X solution which contains 4 g of potassium chloride, 80 g of sodium chloride and 10 g of glucose per liter. The Puck's saline formulation A is made using 10 mL of the 10X Puck's formulation, 0.47 mL of 7.5% sodium bicarbonate and 2 mL of 1M N-2-hydroxyethylpiperazine-N'-2-ethanesulfonic acid per 100 mL.)
Compounds are dissolved in dimethyl sulfoxide. Compounds are tested at concentrations of 10, 1 and 0.1 µM. Each concentration is tested in duplicate.
A 1 µL portion of compound solution or vehicle (DMSO) is added to each well and the plates are incubated for 15 minutes at 37°C in a 5% carbon dioxide atmosphere. Zymosan is then added to provide a final concentration of 50 µg/mL in each well and the plate is incubated for 1 to 2 hours at 37°C in a 5% carbon dioxide atmosphere.
Following incubation 200 µL portions of media are transferred to 12 X 75 mm tubes. The tubes are either assayed immediately or stored at -20°C until they can be assayed.
The media is assayed for the presence of Leukotriene C4 by radioimmunoassay which is performed according to the manufacturer's (Advanced Magnetics; Cambridge, MA) instructions.

[4] = 1 h, 1 hour post dose, read-out: % Inhibition 1 hour
[5] = 2 h, 2 hour post dose, read-out: % Inhibition 2 hour

SMILES | pIC50 (5-lipoxygenase) | pIC50 [3] | % Inhibition 2 hour ([1]; 5 mg/Kg, 2 hour post dose) | % Inhibition 4 hour ([1]; 5 mg/Kg, 4 hour post dose) | % Inhibition 6 hour ([1]; 5 mg/Kg) | inhibition at 5 mg/kg [1, 4] [%] | also measured
CN(O)C(=O)Nc1cccc(OS(=O)(=O)C(F)(F)F)c1 [Compound 2, 1-hydroxy-1-methyl-3-[3-(trifluoromethylsulfonoxy)phenyl]urea] | 7.40 | – | – | – | – | – | –
CN(O)C(=O)Nc1cccc(SC(F)(F)F)c1 [Compound 4, 1-hydroxy-1-methyl-3-[3-(trifluoromethylthio)phenyl]urea] | 7.57 | – | – | – | – | – | –
COc1cccc(NC(=O)N(O)C(C)C)c1 [Compound 22, 1-hydroxy-3-(3-methoxyphenyl)-1-(1-methylethyl)urea] | 6.13 | 6.52 | 78% and -140% | – | – | 100 | –
Cc1cccc(C)c1NC(=O)N(O)C(C)C [Compound 26, 3-(2,6-dimethylphenyl)-1-hydroxy-1-(1-methylethyl)urea] | < 5.00 | < 6.00 | – | – | – | – | –
CSc1ccc(NC(=O)N(O)C2CCCCC2)cc1 [Compound 31, 1-Cyclohexyl-1-hydroxy-3-[4-(methylthio)phenyl]urea] | 8.22 | 6.70 | – | – | – | – | %I ([2]; 25 mg/Kg): 40%
COc1cccc(NC(=O)NO)c1 [Compound 33, 1-hydroxy-3-(3-methoxyphenyl)urea] | 5.04 | – | – | – | – | – | %I ([2]; 25 mg/Kg): 26%

Continued, in another order:

pIC50 (5-lipoxygenase) | pIC50 [3] | SMILES | % Inhibition 2 hour ([1]; 5 mg/Kg, 2 hour post dose) | % Inhibition 4 hour ([1]; 5 mg/Kg, 4 hour post dose) | % Inhibition 6 hour ([1]; 5 mg/Kg) | inhibition at 5 mg/kg [1, 4] [%] | also measured
7.09 | – | CSc1cccc(NC(=O)N(C)O)c1 [Compound 3, 1-hydroxy-1-methyl-3-[3-(methylthio)phenyl]urea] | 99% | 95% | 51% and 84% | 100 | inhibition at 5 mg/kg [1, 5]: 100%; inhibition at 5 mg/kg ([1]; 4 h, 4 hour post dose, read-out: % Inhibition 4 hour): 83%; %I ([2]; 5 mg/Kg): 39%
7.31 | – | CN(O)C(=O)Nc1ccc(F)cc1 [Compound 11, 3-(4-fluorophenyl)-1-hydroxy-1-methylurea] | – | 77% and 41% | -17% and 30% | 100 | inhibition at 5 mg/kg [1, 5]: 100%; %I ([2]; 20 mg/Kg): 26%; %I ([2]; 50 mg/Kg): 20%
7.28 | – | CCCN(O)C(=O)Nc1ccccc1 [Compound 55, 1-hydroxy-3-phenyl-1-propylurea] | – | – | – | – | %I ([2]; 50 mg/Kg): 8%
8.70 | 7.00 | CSc1cccc(NC(=O)N(O)CC(C)C)c1 [Compound 58, 1-Hydroxy-1-(2-methylpropyl)-3-[3-(methylthio)phenyl]urea] | -21% and -35% | -43% and -63% | 8% and -34% | – | % Inhibition 1 hour ([1]; 5 mg/Kg, 1 hour post dose): 1% and -24%
